Laboratory results as given in ChEMBL document CHEMBL4334518, “Discovery and Pharmacological Studies of 4-Hydroxyphenyl-Derived Phosphonium Salts Active in a Mouse Model of Visceral Leishmaniasis” (J Med Chem, 2019).

Assays:
Leishmania infantum [1] = assay: Antileishmanial activity against Leishmania infantum promastigote after 72 hrs by MTT assay; format: functional, organism-based
Leishmania infantum [2] = assay: Antileishmanial activity against Leishmania infantum amastigotes infected in human THP1 cells after 96 hrs by prolong-gold antifade-reagent/DAPI staining based assay; format: functional, organism-based; details: THP-1, 96 h
THP-1 = assay: Cytotoxicity against human THP1 cells assessed as reduction in cell viability after 72 hrs by MTT assay; format: cell-based; details: THP-1, 72 h
[3] = Selectivity index, ratio of EC50 for cytotoxicity against human THP1 cells to EC50 for antileishmanial activity against Leishmania infantum amastigotes infected in human THP1 cells; format: toxicity, cell-based; details: read-out: Ratio EC50
[4] = Drug uptake in Leishmania infantum LEM 3049 isolate promastigotes at 20 uM after 10 mins at 28 degC by fluorimetric assay; format: ADME
[5] = Drug uptake in ATP depleted Leishmania infantum LEM 3049 isolate promastigotes at 20 uM after 10 mins in presence of 2-deoxy-D-glucose by fluorimetric assay; format: ADME
[6] = Drug uptake in Leishmania infantum LEM 3049 isolate promastigotes at 20 uM after 10 mins at 4 degC by fluorimetric assay; format: ADME

O=C(CCCCCCCCCCCCCCC[P+](c1cccc2ccccc12)(c1cccc2ccccc12)c1cccc2ccccc12)c1ccc(O)cc1O.[Br-]
EC50 (Leishmania infantum [1]): 3.54 µM
EC50 (Leishmania infantum [2]): 1.25 µM
EC50 (THP-1): 12.8 µM
selectivity ratio [3]: 10.3
Drug uptake [4]: Active
Drug uptake [5]: Active
Drug uptake [6]: Active
